Values joined by “and” are separate entries in the source; they are usually repeats but may differ in a detail not shown here. Identical values can stand only once.
Experiments:
[1] = tested on: 23 clinical HSV-1 strains; conditions: mean of 23 clinical HSV-1 strains, in vitro; cited from earlier work
[2] = tested on: 13 clinical VZV strains; conditions: mean of 13 clinical VZV strains, in vitro; cited from earlier work
[3] = tested on: 20 clinical isolates (HSV-1); conditions: two similar assays, one value per assay; cited from earlier work
[4] = photo-stabilization test of cream, UV-lamp irradiation; format: physicochemical; conditions: 2 hours UV-lamp
Method: Studies of photo-stabilization were conducted encapsulating the active ingredient in cyclodextrin-complexes (e.g. α-, β-, γ-cyclodextrin-complexes) or adding different stabilizers. Known photo-stabilizers like anti-oxidants (e.g. propylgallate, alfa-liponic acid), chemical UV-filters (e.g. octyl triazone) and pigments (titanium dioxide, zinc oxid, iron oxid yellow) were used. The efficiency of photo-stabilization was tested by determination of the content of brivudine after 2 hours of irradiation with UV-lamp (dose of 1 MED [Minimal […] dose, 24.8 Wh/m^2, UVA-light]. UVA-light was applied directly to the cream without primary packaging The higher the content of unchanged brivudine after irradiation, the better the photo-stability. […] The pigment iron oxide yellow at a concentration 20% w/w also gave about 85% brivudine content.

[5] = photodegradation according to ICH guideline CPMP/ICH/279/95; format: physicochemical; conditions: unpacked samples without stabilizer, 9.6 hours at 49.5 W/m^2 (dose 475 Wh/m^2)
Description: The degradation of brivudine was investigated according to the ICH (International Conference on Harmonization) guideline CPMP/ICH/279/95. […] The brivudine content decreases from about 100% to about 70% after irradiation. At the same time the samples show an increase of known and unknown impurities of about 30%.

| Compound | mean IC50 in a panel of 23 clinical HSV-1 strains [1] [µg/mL] | mean IC50 in 13 clinical VZV strains [2] [µg/mL] | mean IC50 in a panel of 20 clinical isolates [3] | brivudine content after irradiation ([4]; iron oxide yellow 20% w/w, 1 MED) | brivudine final content after irradiation ([4]; titanium dioxide 20% w/w, 1 MED) | brivudine content after irradiation, % of the initial concentration ([4]; without photo-stabilizer, 5% w/w brivudine cream, 1 MED (24.8 Wh/m^2, UVA)) | increase of known and unknown impurities [5] | brivudine content after irradiation ([5]; from about 100%) |
| --- | --- | --- | --- | --- | --- | --- | --- | --- |
| Nc1nc2c(ncn2COCCO)c(=O)[nH]1 [acyclovir] | 0.92 | 0.2 |  |  |  |  |  |  |
| Nc1nc2c(ncn2CCC(CO)CO)c(=O)[nH]1 [penciclovir] |  | 0.91 | 0.6 µg/mL and 0.8 µg/mL |  |  |  |  |  |
| O=c1[nH]c(=O)n([C@H]2C[C@H](O)[C@@H](CO)O2)cc1/C=C/Br [brivudine, (E)-5-(2-bromovinyl)-2′-deoxyuridine] | 0.52 | 0.001 |  | about 85% | about 85% | about 40% | about 30% | about 70% |

— US20040087602A1, “Stabilized brivudine topical formulations” (priority 2001, published 2004)
